According to patent US9663478B2, “Benzotriazine oxides as drugs targeting Mycobacterium tuberculosis” (priority 2011, dated 2017):
≈ marks a conversion by molar mass, not a printed value.

Columns and labels:
[1] = test system: Mycobacterium abscessus ATCC 19977; test: Spectrum of antimicrobial activity; type: cell-based
[2] = test system: Salmonella typhimurium tester strain TA98; test: Salmonella/microsome plate incorporation assay (Ames screen), TA98; type: cell-based
Source text: (§1) A liability in developing any bioreductively-activated antimicrobial drug is the potential for mutagenicity. Because the basis for activity of these compounds is the generation of intermediate radical species, undesirable mutagenicity poses a risk, as has been documented for many classes of bioreductive drugs, including the BTO tirapazamine (TPZ).^19,20 The most convenient methodology for assessing the potential to induce genetic damage is to use the plate incorporation method with Salmonella typhimurium strains TA98 and TA100, commonly known as the Ames assay. The Salmonella tester strains have mutations in the histidine operon, a mutation that leads to defective lipopolysaccharide (rfa), and a deletion that covers genes involved in the synthesis of biotin (bio) and in the repair of ultraviolet-induced DNA damage (uvrB).^21,22 These mutations make the strains more permeable to many molecules and increase their susceptibility to the mutagenic effects of these molecules. Given that the hypothesized mechanism of the BTO compounds is to selectively form cytotoxic radical species in bacteria over mammalian cells, a microbial mutagenicity assay is not ideal, but was used to benchmark their activities in this assay. […] Individual plate counts and their means and standard deviations, along with the condition of the background lawn, are presented in SI Table 2.
(§2) Experimental compounds were screened for microbial mutagenicity activity using the plate incorporation method with Salmonella typhimurium tester strains TA98 and TA100, in the presence and absence of an Aroclor 1254-induced rat-liver metabolic activation system containing 10% S9 (MA). The presence of the appropriate genetic characteristics was verified for the strains used in this study. Stock solutions were made by dissolving each test sample in dimethyl sulfoxide (DMSO) at 5 mg/ml. These initial stock concentrations were then serially diluted to achieve dose formulations of 100, 50, 10, 5, 1, 0.5, and 0.1 μg/plate (dosing volume 100 μl). Test plates were compared with the control plates for their revertant count and for the condition of the background bacterial lawn. A test article was considered a mutagen when the mean number of revertant colonies on the test plates exceeds the mean solvent control counts by at least a two-fold margin. Dose relatedness was also taken into account when evaluating a mutagenic response. Cytotoxicity was estimated by several parameters: a substantial decrease in the number of revertant colonies on the test plates, clearing or absence of the background bacterial lawn growth, formation of pinpoint nonrevertant colonies, or complete absence of bacterial growth.

[3] = test system: Klebsiella pneumoniae ATCC 700721; test: Spectrum of antimicrobial activity; type: cell-based
Mtb H37Rv = test: TB MIC - ITR (UIC), Institute for Tuberculosis Research; type: cell-based, Mycobacterium tuberculosis; conditions: Mycobacterium tuberculosis, H37RV, read-out: TB MIC - ITR
[4] = test system: Mycobacterium smegmatis ATCC 10143; test: Spectrum of antimicrobial activity; type: cell-based
[5] = Solubility, shake-flask method; type: physicochemical; conditions: 0.9% saline solution at pH 7.4, triplicate
Method: The solubility of these two compounds was measured in triplicate using the shake-flask method in a 0.9% saline solution at pH 7.4. Both 8a and 20q had acceptable solubilities of 1.35 mg/mL and 0.28 mg/mL, respectively.
Compounds were ground into a fine powders using a mortar and pestle and added to a 25 mL glass Erlenmeyer flask with 5 mL of a 0.9% saline solution at pH 7.4. Approximately 20 mg of compound was added to each flask to ensure saturation. The flasks were then vigorously stirred using a magnetic stir bar at 25° C. for 48 hours. The samples were then filtered through a Whatman PVDF membrane (0.45 μm pore size) syringe filter. The concentration of compound in the supernatant was then measured using HPLC quantitation at the maximum absorption wavelength for each compound.

[6] = test system: Salmonella typhimurium tester strain TA100; test: Salmonella/microsome plate incorporation assay (Ames screen), TA100; type: cell-based
Source text: as §1, §2

[7] = test system: Acinetobacter baumannii ATCC 17978; test: Spectrum of antimicrobial activity; type: cell-based
[8] = TA98, with metabolic activation (10% S9), 0.1 μg per plate
[9] = TA98, with metabolic activation (10% S9), 0.5 μg per plate
[10] = TA98, with metabolic activation (10% S9), 1 μg per plate
[11] = TA98, with metabolic activation (10% S9), 5 μg per plate
[12] = TA98, with metabolic activation (10% S9), 10 μg per plate
[13] = TA98, with metabolic activation (10% S9), 50 μg per plate
[14] = TA98, with metabolic activation (10% S9), 100 μg per plate
[15] = TA98, without metabolic activation, 0.1 μg per plate
[16] = TA98, without metabolic activation, 0.5 μg per plate
[17] = TA98, without metabolic activation, 1 μg per plate
[18] = TA98, without metabolic activation, 5 μg per plate
[19] = TA98, without metabolic activation, 10 μg per plate
[20] = TA98, without metabolic activation, 50 μg per plate
[21] = TA98, without metabolic activation, 100 μg per plate
[22] = presence and absence of metabolic activation
[23] = TA100, with metabolic activation (10% S9), 0.1 μg per plate
[24] = TA100, with metabolic activation (10% S9), 0.5 μg per plate
[25] = TA100, with metabolic activation (10% S9), 1 μg per plate
[26] = TA100, with metabolic activation (10% S9), 5 μg per plate
[27] = TA100, with metabolic activation (10% S9), 10 μg per plate
[28] = TA100, with metabolic activation (10% S9), 50 μg per plate
[29] = TA100, with metabolic activation (10% S9), 100 μg per plate
[30] = TA100, without metabolic activation, 0.1 μg per plate
[31] = TA100, without metabolic activation, 0.5 μg per plate
[32] = TA100, without metabolic activation, 1 μg per plate
[33] = TA100, without metabolic activation, 5 μg per plate
[34] = TA100, without metabolic activation, 10 μg per plate
[35] = TA100, without metabolic activation, 50 μg per plate
[36] = TA100, without metabolic activation, 100 μg per plate

Q: With `[O-][n+]1nc(N2CCCC2)[n+]([O-])c2cc3c(cc21)CCC3` [Compound 20q, 3-(pyrrolidin-1-yl)-7,8-dihydro-6H-indeno[5,6-e][1,2,4]triazine 1,4-dioxide] as the compound, how does the “susceptibility of M. abscessus” value [1] read?
A: Its value is “resistant”.

Q: What about the “Antimicrobial activity, Mycobacterium abscessus” value ([1]; ATCC 19977) of the same compound?
A: Its value is over 32 µg/mL.

Q: And the “Mean revertants per plate” value [2, 8]?
A: Its value is 39.5.

Q: And the Ratio treated/solvent [2, 8]?
A: Its Ratio treated/solvent is 1.4.

Q: And the “Mean revertants per plate” value [2, 9]?
A: Its value is 30.0.

Q: What about the Ratio treated/solvent [2, 9] of the same compound?
A: The Ratio treated/solvent was 1.1.

Q: What about the “Mean revertants per plate” value [2, 10] of the same compound?
A: Its value is 47.5.

Q: What about the Ratio treated/solvent [2, 10] of the same compound?
A: The Ratio treated/solvent was 1.7.

Q: What about the “Mean revertants per plate” value [2, 11] of the same compound?
A: The value was 124.0.

Q: And the Ratio treated/solvent [2, 11]?
A: Its Ratio treated/solvent is 4.5.

Q: And the “Mean revertants per plate” value [2, 12]?
A: Its value is 266.5.

Q: What about the Ratio treated/solvent [2, 12] of the same compound?
A: The Ratio treated/solvent was 9.8.

Q: And the “Mean revertants per plate” value [2, 13]?
A: Its value is 988.0.

Q: What about the Ratio treated/solvent [2, 13] of the same compound?
A: The Ratio treated/solvent was 36.1.

Q: And the “Mean revertants per plate” value [2, 14]?
A: Its value is 1566.0.

Q: What about the Ratio treated/solvent [2, 14] of the same compound?
A: Its Ratio treated/solvent is 57.3.

Q: And the “Mean revertants per plate” value [2, 15]?
A: Its value is 33.0.

Q: And the Ratio treated/solvent [2, 15]?
A: The Ratio treated/solvent was 1.0.

Q: What about the “Mean revertants per plate” value [2, 16] of the same compound?
A: The value was 50.5.

Q: What about the Ratio treated/solvent [2, 16] of the same compound?
A: Its Ratio treated/solvent is 1.6.

Q: What about the “Mean revertants per plate” value [2, 17] of the same compound?
A: Its value is 85.0.

Q: What about the Ratio treated/solvent [2, 17] of the same compound?
A: The Ratio treated/solvent was 2.7.

Q: And the “Mean revertants per plate” value [2, 18]?
A: The value was 241.0.

Q: What about the Ratio treated/solvent [2, 18] of the same compound?
A: The Ratio treated/solvent was 7.5.

Q: And the “Mean revertants per plate” value [2, 19]?
A: Its value is 378.5.

Q: What about the Ratio treated/solvent [2, 19] of the same compound?
A: Its Ratio treated/solvent is 11.8.

Q: And the “Mean revertants per plate” value [2, 20]?
A: The value was 797.0.

Q: What about the Ratio treated/solvent [2, 20] of the same compound?
A: Its Ratio treated/solvent is 24.9.

Q: What about the “Mean revertants per plate” value [2, 21] of the same compound?
A: Its value is 1133.0.

Q: And the Ratio treated/solvent [2, 21]?
A: Its Ratio treated/solvent is 35.4.

Q: What about the “number of revertant colonies, TA98” value [2, 22] of the same compound?
A: The value was “dose-related increases in the number of revertant colonies”.

Q: And the “Antimicrobial activity, Klebsiella pneumoniae” value [3]?
A: The value was over 32 µg/mL.

Q: What about the MIC (Mtb H37Rv) of the same compound?
A: Its MIC is 0.46 µg/mL (≈ 1.69 µM).

Q: And the “Antimicrobial activity, Mycobacterium smegmatis” value [4]?
A: The value was 2.5 µg/mL.

Q: And the solubility [5]?
A: The solubility was 280 µg/mL (≈ 1030 µM).

Q: What about the “Mean revertants per plate” value [6, 23] of the same compound?
A: The value was 171.5.

Q: And the Ratio treated/solvent [6, 23]?
A: The Ratio treated/solvent was 1.1.

Q: And the “Mean revertants per plate” value [6, 24]?
A: Its value is 204.0.

Q: What about the Ratio treated/solvent [6, 24] of the same compound?
A: The Ratio treated/solvent was 1.3.

Q: And the “Mean revertants per plate” value [6, 25]?
A: The value was 180.5.

Q: And the Ratio treated/solvent [6, 25]?
A: Its Ratio treated/solvent is 1.1.

Q: And the “Mean revertants per plate” value [6, 26]?
A: Its value is 267.0.

Q: What about the Ratio treated/solvent [6, 26] of the same compound?
A: Its Ratio treated/solvent is 1.7.

Q: And the “Mean revertants per plate” value [6, 27]?
A: The value was 291.5.

Q: And the Ratio treated/solvent [6, 27]?
A: Its Ratio treated/solvent is 1.8.

Q: And the “Mean revertants per plate” value [6, 28]?
A: The value was 700.5.

Q: What about the Ratio treated/solvent [6, 28] of the same compound?
A: Its Ratio treated/solvent is 4.4.

Q: What about the “Mean revertants per plate” value [6, 29] of the same compound?
A: The value was 916.0.

Q: And the Ratio treated/solvent [6, 29]?
A: Its Ratio treated/solvent is 5.8.

Q: And the “Mean revertants per plate” value [6, 30]?
A: Its value is 173.0.

Q: And the Ratio treated/solvent [6, 30]?
A: The Ratio treated/solvent was 1.2.

Q: And the “Mean revertants per plate” value [6, 31]?
A: The value was 155.0.

Q: And the Ratio treated/solvent [6, 31]?
A: The Ratio treated/solvent was 1.0.

Q: And the “Mean revertants per plate” value [6, 32]?
A: The value was 206.0.

Q: And the Ratio treated/solvent [6, 32]?
A: The Ratio treated/solvent was 1.4.

Q: And the “Mean revertants per plate” value [6, 33]?
A: The value was 303.0.

Q: What about the Ratio treated/solvent [6, 33] of the same compound?
A: The Ratio treated/solvent was 2.0.

Q: And the “Mean revertants per plate” value [6, 34]?
A: The value was 392.0.

Q: And the Ratio treated/solvent [6, 34]?
A: Its Ratio treated/solvent is 2.6.

Q: What about the “Mean revertants per plate” value [6, 35] of the same compound?
A: The value was 1033.5.

Q: And the Ratio treated/solvent [6, 35]?
A: The Ratio treated/solvent was 7.0.

Q: And the “Mean revertants per plate” value [6, 36]?
A: Its value is 1468.0.

Q: What about the Ratio treated/solvent [6, 36] of the same compound?
A: Its Ratio treated/solvent is 9.9.

Q: And the “number of revertant colonies, TA100” value [6, 22]?
A: The value was “dose-related increases in the number of revertant colonies”.

Q: What about the “Antimicrobial activity, Acinetobacter baumannii” value [7] of the same compound?
A: Its value is over 32 µg/mL.
